Results as given in US20220226321A1, “INHIBITOR OF MNK FOR THE TREATMENT OF NEUROPATHIC PAIN” (Board of Regents, The University of Texas System, priority 2019, published 2022).
Entries after “also recorded” stand apart in the source; their conditions may differ.

What was measured:
SNI mice [1] = assay: mechanical withdrawal threshold (von Frey) after SNI; format: in vivo, mouse; settings: 1 or 3 hours after treatment on days 1 and 5 of 7-day schedule, 10 mg/kg p.o.
Protocol: (§1) Surgery. Spared nerve injury (SNI) was performed by the ligation and cutting of the tibial and peroneal branches of the left sciatic nerve trifurcation, leaving the sural branch intact as previously described (Decosterd and Woolf, 2000). Sham surgeries were performed the same way but without cutting the nerve. Mice were allowed to recover for 2 weeks following surgery.
Mechanical withdrawal threshold. Tactile sensitivity was measured by probing the left outer surface of the left hindpaw with a series of calibrated von Frey filaments. Mechanical withdrawal thresholds were assessed in all animals before (baseline) and after (2 weeks) surgery to confirm neuropathy. Withdrawal thresholds were calculated using the up-down method (Chaplan et al., 1994).

DRG neurons = assay: whole-cell patch clamp of cultured DRG neurons treated with IL-6 and eFT508; format: cell-based, mouse
Protocol: Phosphorylation of the 5′ cap-binding protein eIF4E by MAPK interacting kinases MNK1/2 is important for nociceptor sensitization and the development of chronic pain. IL-6 induced DRG nociceptor excitability is attenuated in mice lacking eIF4E phosphorylation, in MNK1/2^−/− mice and by the nonselective MNK1/2 inhibitor cercosporamide. […] Dorsal root ganglion (DRG) neurons were cultured from male and female ICR mice, 4-7 weeks old. […] Whole-cell patch clamp recordings were done on small diameter neurons (20-30 pF) to measure membrane excitability in response to ramp depolarization. […] These findings are consistent with a model wherein MNK-eIF4E signaling controls the translation of signaling factors that regulate T-type VGCCs in response to IL-6 treatment.

SNI mice [2] = assay: attentional rule-shifting task after SNI; format: in vivo, mouse; settings: SNI mice vs SNI+vehicle, 10 mg/kg p.o. 7 days
Protocol: as §1
Attentional rule-shifting. Habituation: Mice were handled and gradually food restricted to 90% of their baseline weight over 3 weeks. Habituation took place over 3 days in which food rewards (Cheerio bits) were placed along each arm of a plusmaze. Mice were allowed to freely explore the maze and consume the food for 4 trials per day with a maximum time of 30 minutes per trial. When the mouse had consumed all of the food, the trial ended, and the mouse was returned to a holding cage while the maze was rebaited. The number of food pellets in each arm decreased from 4 to 2 to 1 on each consecutive day of habituation. Turn bias: On the fourth day the inventors assessed the animals' turn bias. Therefore, the plus maze was converted into a T-maze by blocking off one of the arms. Mice were placed in the stem arm (starting arm) and allowed to turn left or right to obtain a food pellet. After the mouse consumed the reward, it was returned to the stem arm and allowed to make another choice. […]

DLBCL cell lines = settings: cited from earlier work
DRG = assay: measurement of protein synthesis by puromycin incorporation in DRG; format: in vivo, mouse; settings: single dose 10 mg/kg
Protocol: Measurement of Protein Synthesis. Eight to 12-week-old wild-type and eiF4E^S209A mice were injected with puromycin (10 mg/kg via the intraperitoneal route, i.p.), and 1 hr later, DRGs were collected and processed for Western blotting using anti-puromycin monoclonal antibody (PMY-2A4, KeraFast). […] Protein synthesis was determined by measuring total lane signal from 250-15 KDa and subtracting unlabeled protein control. Signals were quantified using Image Lab (BioRad, Hercules, Calif.).

paclitaxel-treated mice = assay: mechanical paw withdrawal threshold (von Frey) in paclitaxel-induced CIPN; format: in vivo, mouse; settings: for mechanical allodynia / hypersensitivity, acute treatment: 10 mg/kg i.p. after full development of CIPN, 1st and 2nd injection, 1 and 3 hrs
[3] = tested on: cultured mouse DRG neurons; assay: Western blot of cultured primary DRG neurons treated with eFT508; format: cell-based
[4] = tested on: cultured mouse DRG neurons; assay: microelectrode array (MEA) recordings of cultured DRG neurons exposed to IL-6; format: cell-based; settings: for spontaneous firing: IL-6 100 ng/ml, tomivosertib 25 nM co-treatment
Protocol: Extracellular electrophysiology. Substrate-integrated microelectrode array (MEA) recordings were performed using PDL and laminin pre-treated 12-well MEA plates (Axion Biosystems, USA) and an Axion Maestro recording system. DRG sensory neurons were dissected, dissociated, and seeded as previously described (Moy et al., 2017). […] Cultures were maintained at 37° C., 5% CO2, and ≥90% humidity throughout the recordings. Briefly, 30 min baseline recordings were carried out following a 30 min acclimation period. […] Recordings were then collected continuously for 3 hours. […] Online and offline MEA data analysis was performed using Axion's AxIS, NeuralMetrics Tools, and NeuroExplorer (NeuroExplorer, USA). Physiologically relevant extracellular action potentials were defined as previously described^29.

Compound: Cc1cc(Nc2cc(N)ncn2)c(=O)n2c1C(=O)NC21CCCCC1 [eFT508, Tomivosertib]
- mechanical withdrawal thresholds (SNI mice [1]): had no effect
- latency to the first action potential in the ramp protocol (DRG neurons; IL-6, eFT508 pretreatment): rescued
- action potential firing in response to ramp depolarization (DRG neurons; one hr IL-6, eFT508 pretreatment followed by IL-6): blocked
- never-reinforced (NRE) and regressive (REG) type errors (SNI mice [2]): significantly fewer
- production of pro-inflammatory cytokines including TNFα, IL-6, IL-10 and CXCL10 (DLBCL cell lines; TMD8, OCI-Ly3 and HBL1 DLBCL cell lines): dose-dependent decreases
- decrease in TNFα mRNA half-life (DLBCL cell lines): 2 fold
- anti-proliferative activity (DLBCL cell lines; multiple DLBCL cell lines): anti-proliferative activity
- general translation (puromycin incorporation in the DRG) (DRG): not influenced
- mechanical hypersensitivity (established CIPN), chronic treatment (paclitaxel-treated mice; 1 mg/kg, WT mice): robust relief of mechanical hypersensitivity; also recorded: reverses established CIPN
- tolerance to repeated dosing (paclitaxel-treated mice; 1 mg/kg, WT mice): No signs of tolerance; also recorded: without inducing tolerance
- mechanical hypersensitivity, chronic treatment (paclitaxel-treated mice; 1 mg/kg, eIF4E^S209A mice): completely absent; also recorded: completely without effect
- mechanical allodynia / hypersensitivity, acute treatment (paclitaxel-treated mice): reversal; also recorded: transiently relieves mechanical allodynia
- mechanical allodynia / hypersensitivity, acute treatment (paclitaxel-treated mice; listed as eFT08): relieves mechanical allodynia
- RagA protein level ([3]; 1 μM for 1 hr): decrease
- level of eIF4E phosphorylation ([3]; 0.1 and 1 μM, 1 hr): significantly reduced
- other signaling pathways ([3]; 0.1 and 1 μM, 1 hr): without affecting other signaling pathways
- reduction of eIF4E phosphorylation ([3]; cultured DRGs neurons): 90%
- firing, tomivosertib only vs IL-6 only group ([4]; 25 nM): reduction in firing
- spontaneous firing ([4]; listed as Tomivosertib): significantly reduced
- spontaneous firing ([4]; listed as tomivosertib): attenuated
- firing rate at treatment time points vs baseline recording ([4]; tomivosertib only group): no significant difference in firing rate
